row,melting point [°C],Structure (SMILES)
1,232,COc1ccc(-c2nc(N)ncc2-c2ccc(=O)n(C)n2)cc1OC
2,176,CC(=O)Nc1cscn1
3,140,NC(=O)CCc1c[nH]c2ccccc12
4,188 to 190,COc1ccc(O)c(Cc2cccc(C(F)(F)F)c2)c1
5,119 to 121,Cc1cc2c(-c3ccccc3F)nc(=O)n(C)c2s1
6,128 to 130,COc1ccc(C2OC3(CCNCC3)N3CCCCC23)cc1 (stereo unspecified)
7,327,O=c1[nH]c(C=Cc2ccc([N+](=O)[O-])o2)nc2ccccc12
8,269 to 271,Oc1cc(CBr)c2oc(-c3ccc(O)c(F)c3)cc2c1
9,68 to 69,C=CCOC(=O)c1c(C)nc2c(cnn2CCC(=C)C)c1N
10,154 to 155,O=C1CCCC1c1ccc(Cl)cc1 (stereo unspecified)
11,212 to 215,O=C1Nc2cccc(I)c2C(=O)N2CCC[C@@H]12
12,148 to 152,CS(=O)c1ncccc1C(=O)c1cnoc1C1CC1 (stereo unspecified)
13,122 to 136,C[C@H](NC(=O)Cc1ccccc1)C(=O)N[C@@H]1C(=O)Nc2ccccc2O[C@@H]1c1ccccc1
14,183 to 184,C/C(=C\c1ccc(C(=O)OCc2ccc([N+](=O)[O-])cc2)cc1)c1ccc2c(c1)C(C)(C)CCC2(C)C
15,136 to 140,CCOC(=O)c1c(C)nn2ccc3c(c12)C(CC#N)CC3 (stereo unspecified)
16,172 to 173,CS(=O)c1[nH]cc(CCc2ccccc2)c1[N+](=O)[O-] (stereo unspecified)
17,250 to 255,Nc1nc(O)c2cc(CN(Cc3c[nH]c(=O)[nH]c3=O)c3ccc(C(=O)N[C@@H](CCC(=O)O)C(=O)O)cc3)ccc2n1
18,148 to 152,CCCn1c(=O)oc2cc(F)c([N+](=O)[O-])cc21
19,293 to 295,COc1cccc2c1nc(C(F)F)n2-c1nc(Nc2cncnc2)nc(N2CCOCC2)n1
20,148 to 149,CCn1c2ccc3ccccc3c2c2cccc(C=O)c21
21,97 to 98,CCCC(CNC(=O)Cc1c(Cl)cncc1Cl)c1cccc(OC)c1 (stereo unspecified)
22,159 to 161,CN(C)Cc1ccc(-c2cc3onc(-c4ccccc4)c3c(=O)n2C)cc1
23,246 to 248,Cc1c(C(=O)Nc2cc(Cl)c(N3CCC(N4CCOCC4)CC3)c(Cl)c2)cnn1-c1ccc(Cl)cc1
24,183 to 185,Cn1cccc1-c1nc2cc(N)ccc2o1
25,188 to 189,CC(C)(C)C(NC(=O)c1ccc(Cl)cc1)NC(=NC#N)NCc1cccnc1 (stereo unspecified)
26,205 to 206,CNc1nnc(-c2ccc3occ(-c4ccccc4Cl)c3c2)o1
27,100 to 110,Cc1ccc(S(=O)(=O)NN=CC(=O)Cl)cc1

row,melting point [°C],Structure (SMILES)
1,302 to 305,O=C(O)c1cn([C@@H]2C[C@@H]2F)c2cc(F)ccc2c1=O
2,160 to 163,COc1ccc(C(=O)O)cc1OC1C=CCC1 (stereo unspecified)
3,237,NS(=O)(=O)c1cccc(-c2cc(-c3nc(-c4ccc(C(F)(F)F)cc4)cc(C(F)(F)F)n3)ccn2)c1
4,220 to 223,N#Cc1cnc2cnc(Cl)cc2c1Nc1cccc(Br)c1
5,116,OC(CSC(=S)Nc1ccc(Cl)cn1)c1ccccc1 (stereo unspecified)
6,92 to 93,O=C1CCc2cc(Oc3ccccc3)ccc21
7,160 to 165,COc1c([N+](=O)[O-])ccc2c1C(=O)CC1(CCN(C(C)=O)CC1)O2
8,155 to 158,Cc1cccnc1CS(N)(=O)=O
9,70 to 88,CCCN(CCC)CCc1ccc(OCc2ccccc2)c(NC(N)=O)c1
10,130,CC(C)(c1ccccc1)c1cc(C(C)(C)c2ccccc2)c(O)cc1O
11,244,Cc1cccc(NC(=O)c2cc(C#N)cc(C)n2)n1
12,145 to 155,Cc1ccc(-c2ccc(NN)nn2)c(OCC(O)CNC(C)(C)C)c1 (stereo unspecified)
13,79 to 81,CN(C)c1ccc2c(c1Br)C(=O)C1(CC1)O2
14,170 to 173,O=c1[nH]cc(Cl)cc1Br
15,99 to 101,O=P1(c2ccccc2)c2ccccc2CN1Cc1ccccc1 (stereo unspecified)
16,160,C=COC(=O)N1C[C@@H]2SCCC(c3ccccc3)(c3ccccc3)[C@@H]2C1 (racemic)
17,124 to 126,CCOC(=O)C(=O)Nc1cccc(N(C)C)c1C#N
18,214 to 216,CCOc1ccc(-c2nc(O)c(-c3ccccc3)s2)cc1
19,74 to 77,COc1cc(N)c(Cl)cc1C(=O)NCC1CCN(CCCCCNC(=O)c2nn(C)c3ccccc23)CC1
20,143 to 145,CCOC(=O)c1ccc(NC(=O)c2ccncc2)cc1
21,121 to 122,CCCc1c(OCc2ccccc2)ccc2c(=O)cc(C(=O)OCC)[nH]c12
22,62 to 65,CCCCCCCCCCCCCCCc1ccc(-c2nc(-c3ccccc3Cl)nn2C)cc1
23,51,C=CC(=O)OCCCC#Cc1ccc(C(F)(F)Oc2ccc(OC(F)(F)c3ccc(C#CCCCOC(=O)C=C)cc3)c(C)c2)cc1
24,114 to 115,COC(=O)c1cc(N)c2cc(Cc3ccc(F)cc3)cnc2c1O
25,153 to 154,NS(=O)(=O)c1ccccc1C=CC(F)(F)F
26,153 to 156,Cc1nc2c(cc1C(=O)NC(=N)N)CCCCC2Cl (stereo unspecified)

# The next lines start with the compound.
row,Structure (SMILES),melting point [°C]
1,CC(C)CC(C)Oc1c(-c2ccc(S(C)(=O)=O)cc2)cnn(-c2ccc(F)c(F)c2)c1=O (stereo unspecified),132 to 133
2,COc1cc(Nc2c(C#N)cnc3cc(OCC4CCCCO4)c(OC)cc23)c(Cl)cc1Cl (stereo unspecified),193 to 196
3,N#Cc1cnc2cnc(F)cc2c1Nc1ccc(Oc2ccccc2)cc1,211 to 213
4,CN(C)C1(c2ccccc2)CCC(=CC(=O)N2CCC(c3c[nH]c4ccc(Cl)cc34)CC2)CC1 (stereo unspecified),115 to 119
5,CCOc1cc2ncc(C#N)c(Nc3cccc(Cl)c3)c2cc1OCC,188 to 190
6,CCOC(=O)C1=CC(C(=O)c2cc(C)ccc2O)=CN2CCc3c([nH]c4ccccc34)C12C(=O)OCC (stereo unspecified),208
7,COc1ccc(C=CC(=O)NNC(=O)C=Cc2ccc(OC)cc2)cc1,288
8,Cc1ccc(C)c2c1OCc1ccccc1C2C(=O)Nc1c(C(C)C)cccc1C(C)C (stereo unspecified),149 to 150
9,CC(C)(C)[Si](C)(C)O[Si](C)(C)C(C)(C)C,94 to 95
10,CN(C(=O)c1ccc2nonc2c1)C1CCSCC1,155 to 156
11,CCc1nc2c(C)cc(C)nc2n1Cc1ccc(-c2ccccc2-c2nc(=O)o[nH]2)cc1,149 to 152
12,CN1CCN(c2cnc([N+](=O)[O-])c(Cl)n2)CC1,50
13,CC[C@H]1c2ccc(C#N)n2-c2cc(F)c(F)cc2N1S(=O)(=O)c1ccc(O)cc1,191 to 192
14,CS(=O)(=O)C(=C1CN(C(c2ccccc2)c2ccccc2)C1)c1cc(Cl)ccc1Cl,202
15,Oc1nc(-c2ccccc2)nc(-c2ccccc2)n1,296 to 297
16,CN(C)c1nccc2c1nnn2Cc1ccccc1F,248 to 252
17,COc1ccc(CNc2nc(-n3ccnc3)nc3sc(C)cc23)cc1OC,207
18,COc1cc([N+](=O)[O-])ccc1S(=O)(=O)N1C(=O)C(NC(C)=O)(c2ccccc2Cl)c2cc(Cl)ccc21 (stereo unspecified),205 to 210
19,CON=C1CCC(C)(C)c2cc(C)c(-c3cc(C=C4SC(=O)NC4=O)ccc3N(C)C)cc21,254 to 256
20,CCOC(=O)C1=C(COCCNCC(=O)OC)NC(C)=C(C(=O)OC)C1c1cccc(Cl)c1Cl (stereo unspecified),96 to 98
21,CCCc1c(C(=O)C(C)C)c2ccc(C(N)=O)cc2n1Cc1ccc(Br)cc1F,197 to 198
22,CCOC(=O)NCCc1cc2ccccc2s1,65 to 66
23,COc1ccc(OCC2(Cc3c(C)[nH]c(=O)c(C(C)C)c3O)CC2)cc1,222 to 223
24,Cc1ccc(S(=O)(=O)NC(C)C(=O)Cl)cc1 (stereo unspecified),101 to 102

row,Structure (SMILES),melting point [°C]
1,CCc1c(Cl)nc(Cl)nc1N(C=O)c1cc(C)cc(C)c1,124 to 125
2,O=C(O)c1cccc(-c2ccc(F)c3cc(Cc4ccc(F)c(F)c4)sc23)c1,224 to 225
3,Cc1cc(-c2sc(N3CCN(Cc4ccc(C(=O)N5CCCCC5)cc4)C3=O)nc2C)[nH]n1,182 to 183
4,CC(C)Oc1ccccc1-c1nc2ccc(C(=O)O)cc2c(=O)[nH]1,316 to 318
5,CCc1cc(OC)c(C=O)cc1OC,46 to 47
6,CC(=O)Cc1ccc(Oc2ccc(Cl)cc2)cc1,50 to 52
7,O=C(O)c1cn(C2CC2)c2nc(N3CCCC(n4ccnn4)C3)c(F)cc2c1=O (stereo unspecified),251 to 254
8,CN(O)C(=O)Nc1c(C(=O)c2ccccc2)[nH]c2cc(Cl)ccc12,208 to 214
9,CC(C)C1(C(C)C)CC(c2ccc(N)cc2)=CC=C1N,288
10,Cc1cccc(C(=O)NNC(=O)c2ccccc2Cc2ccccc2)c1,149 to 150
11,O=C(c1ccccc1)n1cc(F)c(=O)n(C(=O)c2ccccc2)c1=O,195
12,Cc1ccc(S(=O)(=O)n2ccnc2C(O)(c2ccccc2)c2ccccc2Cl)cc1 (stereo unspecified),165 to 167
13,CCCCNc1nc(C)c(C(=O)OCC)c(N)c1[N+](=O)[O-],74 to 76
14,CC(C)(C)OC(=O)NC1CSCCNC1=O (stereo unspecified),200 to 201
15,COc1ccc(CS(=O)(=O)c2cc(OC)c(OC)c(OC)c2)cc1,95 to 97
16,CS(=O)(=O)c1ccc(C(=O)C2C(=O)CCCC2=O)c(Cl)c1C1=NOC2OCCC12 (stereo unspecified),119
17,CCOC(=O)c1cc(C)n(-c2cccc(C)c2)c1-c1ccccc1,92.5 to 94
18,CCOC(=O)C1CCN(c2cc(C)nc3c2c(C)cn3-c2c(C)cc(Cl)cc2C)CC1,140 to 142
19,CN(C(=O)OC(C)(C)C)c1ccc(C#CCCCO)cc1,103 to 105
20,CSC(C)(C)C(NS(=O)(=O)c1ccc(Oc2ccccc2)cc1)C(=O)O (stereo unspecified),156 to 158
21,COC(=O)c1cn2c3c(c(F)c(F)cc3c1=O)CC(C)N2C (stereo unspecified),184 to 185
22,CCOC(=O)Oc1ccc(C(=O)OCCN2CCN(CCN3CCOCC3)CC2)cc1,85 to 87
23,O=C(O)CCCc1cc2nc(Cl)ccc2n1S(=O)(=O)c1ccc(Cl)cc1Cl,154 to 155
24,Cc1cc(=O)n(C)c2cc(OCCCN3CCC(NC(=O)c4ccccc4)CC3)ccc12,193 to 195
